# According to patent US10842765B2, “Methods of reducing or preventing oxidation of small dense ldl or membrane polyunsaturated fatty acids” (Amarin Pharmaceuticals Ireland Limited, priority 2016, dated 2020):
# Where “and” joins values, the source holds several entries; their conditions need not be identical. Equal values may be shown once.
# How the values were obtained:
# [1] = system: human LDL; assay: Copper-induced unfractionated LDL oxidation, TBARS, Example 7; assay type: biochemical; conditions: beginning at 1.0 μM; 1 hour
# [2] = system: rat renal glomerular endothelial cells; assay: NO and ONOO- release ex vivo from glomerular endothelial cells exposed to oxLDL and high glucose, Example 13; assay type: cell-based; conditions: 10.0 μM, 1 hr; oxLDL 11 mg/dL and glucose 300 mg/dL; vs vehicle
# Description: Healthy male Wistar Kyoto (WKY) rats, aged 7-9 weeks and weighing 250±20 g, were obtained from inbred colonies (National Institutes of Health, Bethesda, Md.). Animals were housed in a controlled environment that provided food and water ad libitum prior to the study. […] Animals were sacrificed and tissue samples obtained immediately for experimentation. All procedures were conducted in accordance with standard Institutional Animal Care and Use Committee guidelines and conformed to the Guide for the Care and Use of Laboratory Animals published by the US National Institutes of Health.
# EPA and DHA were purchased from Sigma-Aldrich (St. Louis, Mo.) and solubilized in ethanol to 1.0 mM under nitrogen atmosphere. […]
# LDL was oxidized according to the methods of Huber et al. 16 Briefly, the purified LDL fraction was dialyzed against Tris/NaCl Buffer (50 mM Tris in 0.15 M NaCl, pH 8.0) to remove EDTA. […] LDL oxidation was initiated with 20 μM CuSO4 and monitored spectrophotometrically (234 nm) over a period of 24 hours until complete. […]
# Each analyte was measured from amperograms and standard calibration curves collected under maximum current. […] Changes in current (proportional to the molar concentrations of NO or ONOO^− released) were monitored continuously immediately following Cal stimulation. […]
# [3] = Glucose-induced membrane lipid peroxidation (LOOH) in lipid vesicles, Example 4; assay type: biochemical; conditions: 1.0 μM; glucose 200 mg/dL; 96 hours
# Description: An experiment was conducted to test the ability of EPA to interfere with the effects of high glucose on membrane lipid peroxidation and organization in vesicles enriched with PUFAs. […] Vitamin E (α-tocopherol) was also purchased from Sigma-Aldrich and prepared in ethanol at 1.0 mM (ε=3.06×10^4 M^−1 cm^−1 at 294 nm) just prior to experimental use. […] All test compounds were further diluted in ethanol or aqueous buffer as needed. Glucose was prepared in saline buffer (0.5 mM HEPES, 154 mM NaCl, pH 7.3) at 11.0 mM (200 mg/dL). CHOD-iodide color reagent (stock) was prepared, with slight modification, as described by from El-Saadani et al. (J. […] Samples were shell-dried under nitrogen gas and placed under vacuum for 1 h to remove residual solvent. […] Lipid suspensions were then vortexed for 3 min at ambient temperature to form MLVs. All MLV samples were subjected to time-dependent autoxidation by incubating at 37° C. in an uncovered, shaking water bath. This method allows lipid peroxidation to occur gradually without requiring the use of exogenous initiators. Small aliquots (5-100 μL) of each sample were removed, immediately following MLV preparation (0 hour) and after exposing samples to oxidative conditions for 72 or 96 hour, and combined with 1.0 mL of activated CHOD-iodide color reagent. Aliquot volume was reduced with each successive time point to ensure that spectrophotometric readings were within the optimal adsorption range. Test samples were covered and incubated in darkness at room temperature for at least 4 hr. Sample absorbances were then measured against a CHOD blank at 365 nm using a Beckman DU-640 spectrophotometer. The CHOD colorimetric assay is based on the oxidation of iodide (I^−) by lipid hydroperoxide (LOOH) to form triiodide (I3^−), the quantity of which is directly proportional to the amount of LOOH present in the lipid sample. The molar absorptivity (I3^−) of I3^− is 2.46×10^4 M^−1 cm^−1 at 365 nm. […]
# [4] = system: human sdLDL; assay: Copper-induced sdLDL oxidation, TBARS, Example 7; assay type: biochemical
# Description: Samples were prepared at 100 μg/mL sdLDL and incubated with EPA or DHA (10.0 μM each) for 30 minutes prior to initiating lipid oxidation using 10 μM CuSO4. Samples were maintained at 37° C. in a shaking water bath for 1 hour. Lipid oxidation was measured by colorimetric assay of TBARS formation and expressed as molar equivalents of MDA.
# An experiment to study the antioxidant effect of EPA in LDL and small dense LDL (“sdLDL”) was performed. LDL and sdLDL were isolated from the plasma of healthy volunteers by iodixanol density gradient ultracentrifugation, and adjusted to a final apolipoprotein concentration of 2 mg/mL. […] Lipid oxidation was initiated with 10 μM CuSO4 and monitored by the colorimetric detection of thiobarbituric acid reactive substances (TBARS) for 1 hr. Vitamin E was also incubated with sample aliquots as a positive control.
# [5] = system: HUVECs; assay: NO and ONOO- release from HUVECs exposed to oxLDL (nanosensors), Example 8; assay type: cell-based, human; conditions: ECs exposed to oxLDL
# Description: Human umbilical vein endothelial cells (HUVECs) were isolated into primary cultures from female donors by Clonetics (San Diego, Calif.) and purchased as proliferating cells. All cell culture donors were healthy, with no pregnancy or prenatal complications. […] The confluent cells (4 to 5×10^5 cells/35 mm dish) were placed with minimum essential medium containing 3 mM L-arginine and 0.1 mM BH4 [(6R)-5,6,7,8-tetrahydrobiopterin]. Before experimental use, the cells (from second or third passage) were rinsed twice with Tyrode-HEPES buffer with 1.8 mM CaCl2. […]
# Oxidation was monitored by the use of measurements of TBARS. […] TBARS concentration was determined as malondialdehyde (MDA) equivalents with the use of an MDA standard curve. […]
# The amperometric method (with a response time of 0.1 ms) provides a quantitative signal (current) that is directly proportional to changes (from basal levels) in NO or ONOO^− concentration. […] Basal NO or ONOO^− levels were measured by differential pulse voltammetry in separate experiments. […]
# Data are presented as mean±S.D. for (N) separate samples or experiments. Differences between groups were analyzed using the two-tailed, Student t-test (for comparisons between only two groups) or ANOVA followed by Student-Newman-Keuls multiple comparisons post-hoc analysis (for comparisons between three or more groups). […]
# [6] = X-ray diffraction of membrane cholesterol domains in POPC/cholesterol model membranes, Example 9; conditions: C/P 1.5:1
# Description: The fatty acid stock solutions were stored at −20° C. until use.
# Samples were shell-dried under nitrogen gas and placed under vacuum for 3 hours to remove residual solvent at room temperature. After desiccation, each sample was resuspended in saline buffer (0.5 mM HEPES, 154 mM NaCl, pH 7.3) to yield a final phospholipid concentration of 2.5 mg/mL. Lipid suspensions were then vortexed for 3 minutes at ambient temperature to form MLVs.
# Briefly, a 100 μL aliquot of each MLV preparation (containing 250 μg MLV) was transferred to a Lucite® sedimentation cell fitted with an aluminum foil substrate designed to collect MLVs into a single membrane pellet upon centrifugation.
# After centrifugal orientation, sample supernatants were aspirated and aluminum foil substrates, each supporting a single membrane pellet, were removed from the sedimentation cells. Sample pellets were dried for 5-10 minutes at ambient conditions, mounted onto curved glass supports, and placed in hermetically-sealed, brass or glass containers (for immediate analysis or temporary storage, respectively). All x-ray diffraction experiments were conducted at 20° C., 74% relative humidity. The latter was established by exposing membrane samples to saturated solutions of L-(+)-tartaric acid (K2C4H4O6.½H2O) for at least 1 hour prior to experimental analysis. […]
Compound,"inhibition of unfractionated LDL oxidation, dose dependence [1]",reduction in ONOO^− release [2],"antioxidant effects, separate treatments [3]","inhibition of sdLDL oxidation vs vehicle ([4]; ATM at the highest dose, 1 hr)",increase in NO release as compared to vehicle [5],"inhibition of sdLDL oxidation as compared to vehicle or DHA ([4]; 10.0 μM, after 4 hours)","inhibition of sdLDL oxidation (TBARS formation) vs vehicle ([4]; each agent 10 μM, 1 hr)",Relative Chotesterol Domain Peak Intensity ([6]; EPA D/P mole ratio 1:60),Relative Chotesterol Domain Peak Intensity ([6]; EPA D/P mole ratio 1:90)
"CC(C)c1c(C(=O)Nc2ccccc2O)c(-c2ccccc2)c(-c2ccc(F)cc2)n1CC[C@@H](O)C[C@@H](O)CC(=O)O [ATM, Ortho (o)-hydroxy atorvastatin metabolite]",significant and dose-dependent inhibition of unfractionated LDL oxidation,25%,separate and potent antioxidant effects,90±2%,–,–,–,–,–
"CC/C=C\C/C=C\C/C=C\C/C=C\C/C=C\CCCC(=O)O [EPA, cis-5,8,11,14,17-eicosapentaenoic acid]",–,–,separate and potent antioxidant effects,–,45%,significantly inhibited sdLDL oxidation,93±2% and 92±8%,29.5 ± 10.9,36.0 ± 3.1
